Experiments:
Assay type in all cases: in vivo
Conditions in all cases: after 13 d
corn (Zea mays, ZEAMX) [1] = assay: Test A pre-emergence, corn
Method: (§1) Seeds of corn (Zea mays, ZEAMX), giant foxtail (Setaria faberi, SETFA), barnyardgrass (Echinochloa crus-galli, ECHCG), ivy-leaved morning glory (Ipomoea hederacea, IPOHE), redroot pigweed (Amaranthus retroflexus, AMARE) and velvetleaf (Abutilon theophrasti, ABUTH) were sown in standard soil in pots. After cultivation for one day under controlled conditions in a glasshouse (at 24/16° C., day/night; 14 h light; 65% humidity), the plants were sprayed with an aqueous spray solution derived from the formulation of the technical active ingredient in acetone/water (50:50) solution containing 0.5% Tween 20 (polyoxyethylene sorbitan monolaurate, CAS RN 9005-64-5) to give a final dose of 15.625, 62.5 or 250 g/ha of test compound.
(§2) The test plants were then grown under controlled conditions in a glasshouse (at 24/16° C., day/night; 14 h light; 65% humidity) and watered twice daily. After 13 d the test was evaluated (100=total damage to plant; 0=no damage to plant).

[2] = test system: giant foxtail (Setaria faberi, SETFA); assay: Test A pre-emergence, giant foxtail
Method: as §1, §2

[3] = test system: barnyardgrass (Echinochloa crus-galli, ECHCG); assay: Test A pre-emergence, barnyardgrass
Method: as §1, §2

[4] = test system: ivy-leaved morning glory (Ipomoea hederacea, IPOHE); assay: Test A pre-emergence, ivy-leaved morning glory
Method: as §1, §2

[5] = test system: redroot pigweed (Amaranthus retroflexus, AMARE); assay: Test A pre-emergence, redroot pigweed
Method: as §1, §2

[6] = test system: velvetleaf (Abutilon theophrasti, ABUTH); assay: Test A pre-emergence, velvetleaf
Method: as §1, §2

corn (Zea mays, ZEAMX) [7] = assay: Test A post-emergence, corn
Method: as §1, with “IPOHE)),” for “IPOHE),”, “8 d” for “one day”
(§3) The test plants were then grown on under controlled conditions in a glasshouse (at 24/16° C., day/night; 14 h light; 65% humidity) and watered twice daily. After 13 d the test was evaluated (100=total damage to plant; 0=no damage to plant).

[8] = test system: giant foxtail (Setaria faberi, SETFA); assay: Test A post-emergence, giant foxtail
Method: as §1, with “IPOHE)),” for “IPOHE),”, “8 d” for “one day”
as §3

[9] = test system: barnyardgrass (Echinochloa crus-galli, ECHCG); assay: Test A post-emergence, barnyardgrass
Method: as §1, with “IPOHE)),” for “IPOHE),”, “8 d” for “one day”
as §3

[10] = test system: ivy-leaved morning glory (Ipomoea hederacea, IPOHE); assay: Test A post-emergence, ivy-leaved morning glory
Method: as §1, with “IPOHE)),” for “IPOHE),”, “8 d” for “one day”
as §3

[11] = test system: redroot pigweed (Amaranthus retroflexus, AMARE); assay: Test A post-emergence, redroot pigweed
Method: as §1, with “IPOHE)),” for “IPOHE),”, “8 d” for “one day”
as §3

[12] = test system: velvetleaf (Abutilon theophrasti, ABUTH); assay: Test A post-emergence, velvetleaf
Method: as §1, with “IPOHE)),” for “IPOHE),”, “8 d” for “one day”
as §3

| Structure (SMILES) | damage to plant (100=total damage; 0=no damage) ZEAMX (corn (Zea mays, ZEAMX) [1]; Pre-Emergence at 62.5 g/ha) | damage to plant (100=total damage; 0=no damage) ZEAMX (corn (Zea mays, ZEAMX) [1]; Pre-Emergence at 250 g/ha) | damage to plant (100=total damage; 0=no damage) SETFA ([2]; Pre-Emergence at 62.5 g/ha) | damage to plant (100=total damage; 0=no damage) SETFA ([2]; Pre-Emergence at 250 g/ha) | damage to plant (100=total damage; 0=no damage) ECHCG ([3]; Pre-Emergence at 62.5 g/ha) | damage to plant (100=total damage; 0=no damage) ECHCG ([3]; Pre-Emergence at 250 g/ha) | damage to plant (100=total damage; 0=no damage) IPOHE ([4]; Pre-Emergence at 62.5 g/ha) | damage to plant (100=total damage; 0=no damage) IPOHE ([4]; Pre-Emergence at 250 g/ha) | damage to plant (100=total damage; 0=no damage) AMARE ([5]; Pre-Emergence at 62.5 g/ha) | damage to plant (100=total damage; 0=no damage) AMARE ([5]; Pre-Emergence at 250 g/ha) | damage to plant (100=total damage; 0=no damage) ABUTH ([6]; Pre-Emergence at 62.5 g/ha) | damage to plant (100=total damage; 0=no damage) ABUTH ([6]; Pre-Emergence at 250 g/ha) | damage to plant (100=total damage; 0=no damage) ZEAMX (corn (Zea mays, ZEAMX) [7]; Post-Emergence at 15.625 g/ha) | damage to plant (100=total damage; 0=no damage) ZEAMX (corn (Zea mays, ZEAMX) [7]; Post-Emergence at 62.5 g/ha) | damage to plant (100=total damage; 0=no damage) ZEAMX (corn (Zea mays, ZEAMX) [7]; Post-Emergence at 250 g/ha) | damage to plant (100=total damage; 0=no damage) SETFA ([8]; Post-Emergence at 15.625 g/ha) | damage to plant (100=total damage; 0=no damage) SETFA ([8]; Post-Emergence at 62.5 g/ha) | damage to plant (100=total damage; 0=no damage) SETFA ([8]; Post-Emergence at 250 g/ha) | damage to plant (100=total damage; 0=no damage) ECHCG ([9]; Post-Emergence at 15.625 g/ha) | damage to plant (100=total damage; 0=no damage) ECHCG ([9]; Post-Emergence at 62.5 g/ha) | further results |
| --- | --- | --- | --- | --- | --- | --- | --- | --- | --- | --- | --- | --- | --- | --- | --- | --- | --- | --- | --- | --- | --- |
| CCn1nc(C2CN(C)C(=O)C2C(=O)Nc2cccc(F)c2F)c2cccc(F)c21 (stereo not drawn) [Compound 15] | 0 | 0 | 0 | 0 | 0 | 0 | 0 | 0 | 0 | 0 | 0 | 0 | 0 | 0 | 0 | 0 | 0 | 0 | 0 | 0 | damage to plant (100=total damage; 0=no damage) ECHCG ([9]; Post-Emergence at 250 g/ha): 0; damage to plant (100=total damage; 0=no damage) IPOHE ([10]; Post-Emergence at 15.625 g/ha): 0; damage to plant (100=total damage; 0=no damage) IPOHE ([10]; Post-Emergence at 62.5 g/ha): 0; damage to plant (100=total damage; 0=no damage) IPOHE ([10]; Post-Emergence at 250 g/ha): 0; damage to plant (100=total damage; 0=no damage) AMARE ([11]; Post-Emergence at 15.625 g/ha): 0; damage to plant (100=total damage; 0=no damage) AMARE ([11]; Post-Emergence at 62.5 g/ha): 0; damage to plant (100=total damage; 0=no damage) AMARE ([11]; Post-Emergence at 250 g/ha): 0; damage to plant (100=total damage; 0=no damage) ABUTH ([12]; Post-Emergence at 15.625 g/ha): 0; damage to plant (100=total damage; 0=no damage) ABUTH ([12]; Post-Emergence at 62.5 g/ha): 0; damage to plant (100=total damage; 0=no damage) ABUTH ([12]; Post-Emergence at 250 g/ha): 0 |
| CN1CC(c2nn(C)c(Cl)c2Br)C(C(=O)Nc2ccc(F)cc2F)C1=O (racemic) [Compound 30] | 0 | 0 | 0 | 10 | 10 | 20 | 0 | 10 | 0 | 10 | 0 | 0 | 0 | 0 | 0 | 10 | 20 | 50 | 0 | 20 | damage to plant (100=total damage; 0=no damage) ZEAMX (corn (Zea mays, ZEAMX) [1]; Pre-Emergence at 15.625 g/ha): 0; damage to plant (100=total damage; 0=no damage) SETFA ([2]; Pre-Emergence at 15.625 g/ha): 0; damage to plant (100=total damage; 0=no damage) ECHCG ([3]; Pre-Emergence at 15.625 g/ha): 0; damage to plant (100=total damage; 0=no damage) IPOHE ([4]; Pre-Emergence at 15.625 g/ha): 0; damage to plant (100=total damage; 0=no damage) AMARE ([5]; Pre-Emergence at 15.625 g/ha): 0; damage to plant (100=total damage; 0=no damage) ABUTH ([6]; Pre-Emergence at 15.625 g/ha): 0; damage to plant (100=total damage; 0=no damage) ECHCG ([9]; Post-Emergence at 250 g/ha): 50; damage to plant (100=total damage; 0=no damage) IPOHE ([10]; Post-Emergence at 15.625 g/ha): 0; damage to plant (100=total damage; 0=no damage) IPOHE ([10]; Post-Emergence at 62.5 g/ha): 0; damage to plant (100=total damage; 0=no damage) IPOHE ([10]; Post-Emergence at 250 g/ha): 0; damage to plant (100=total damage; 0=no damage) AMARE ([11]; Post-Emergence at 15.625 g/ha): 0; damage to plant (100=total damage; 0=no damage) AMARE ([11]; Post-Emergence at 62.5 g/ha): 0; damage to plant (100=total damage; 0=no damage) AMARE ([11]; Post-Emergence at 250 g/ha): 10; damage to plant (100=total damage; 0=no damage) ABUTH ([12]; Post-Emergence at 15.625 g/ha): 0; damage to plant (100=total damage; 0=no damage) ABUTH ([12]; Post-Emergence at 62.5 g/ha): 0; damage to plant (100=total damage; 0=no damage) ABUTH ([12]; Post-Emergence at 250 g/ha): 0 |
| CN1CC(c2nn(C)c(Cl)c2Br)C(C(=O)Nc2cccc(F)c2F)C1=O (racemic) [Compound 28] | 0 | 0 | 80 | 90 | 70 | 90 | 0 | 0 | 0 | 0 | 0 | 0 | 0 | 0 | 0 | 10 | 30 | 70 | 30 | 50 | damage to plant (100=total damage; 0=no damage) ZEAMX (corn (Zea mays, ZEAMX) [1]; Pre-Emergence at 15.625 g/ha): 0; damage to plant (100=total damage; 0=no damage) SETFA ([2]; Pre-Emergence at 15.625 g/ha): 20; damage to plant (100=total damage; 0=no damage) ECHCG ([3]; Pre-Emergence at 15.625 g/ha): 30; damage to plant (100=total damage; 0=no damage) IPOHE ([4]; Pre-Emergence at 15.625 g/ha): 0; damage to plant (100=total damage; 0=no damage) AMARE ([5]; Pre-Emergence at 15.625 g/ha): 0; damage to plant (100=total damage; 0=no damage) ABUTH ([6]; Pre-Emergence at 15.625 g/ha): 0; damage to plant (100=total damage; 0=no damage) ECHCG ([9]; Post-Emergence at 250 g/ha): 70; damage to plant (100=total damage; 0=no damage) IPOHE ([10]; Post-Emergence at 15.625 g/ha): 0; damage to plant (100=total damage; 0=no damage) IPOHE ([10]; Post-Emergence at 62.5 g/ha): 0; damage to plant (100=total damage; 0=no damage) IPOHE ([10]; Post-Emergence at 250 g/ha): 0; damage to plant (100=total damage; 0=no damage) AMARE ([11]; Post-Emergence at 15.625 g/ha): 30; damage to plant (100=total damage; 0=no damage) AMARE ([11]; Post-Emergence at 62.5 g/ha): 40; damage to plant (100=total damage; 0=no damage) AMARE ([11]; Post-Emergence at 250 g/ha): 50; damage to plant (100=total damage; 0=no damage) ABUTH ([12]; Post-Emergence at 15.625 g/ha): 0; damage to plant (100=total damage; 0=no damage) ABUTH ([12]; Post-Emergence at 62.5 g/ha): 0; damage to plant (100=total damage; 0=no damage) ABUTH ([12]; Post-Emergence at 250 g/ha): 0 |
| CN1CC(c2cc(C(F)(F)F)n(C)n2)C(C(=O)Nc2cccc(F)c2OC(F)(F)F)C1=O (racemic) [Compound 16] | 0 | 30 | 80 | 90 | 80 | 90 | 0 | 50 | 0 | 0 | 0 | 0 | 0 | 0 | 0 | 0 | 60 | 70 | 0 | 50 | damage to plant (100=total damage; 0=no damage) ZEAMX (corn (Zea mays, ZEAMX) [1]; Pre-Emergence at 15.625 g/ha): 0; damage to plant (100=total damage; 0=no damage) SETFA ([2]; Pre-Emergence at 15.625 g/ha): 0; damage to plant (100=total damage; 0=no damage) ECHCG ([3]; Pre-Emergence at 15.625 g/ha): 0; damage to plant (100=total damage; 0=no damage) IPOHE ([4]; Pre-Emergence at 15.625 g/ha): 0; damage to plant (100=total damage; 0=no damage) AMARE ([5]; Pre-Emergence at 15.625 g/ha): 0; damage to plant (100=total damage; 0=no damage) ABUTH ([6]; Pre-Emergence at 15.625 g/ha): 0; damage to plant (100=total damage; 0=no damage) ECHCG ([9]; Post-Emergence at 250 g/ha): 70; damage to plant (100=total damage; 0=no damage) IPOHE ([10]; Post-Emergence at 15.625 g/ha): 0; damage to plant (100=total damage; 0=no damage) IPOHE ([10]; Post-Emergence at 62.5 g/ha): 0; damage to plant (100=total damage; 0=no damage) IPOHE ([10]; Post-Emergence at 250 g/ha): 0; damage to plant (100=total damage; 0=no damage) AMARE ([11]; Post-Emergence at 15.625 g/ha): 0; damage to plant (100=total damage; 0=no damage) AMARE ([11]; Post-Emergence at 62.5 g/ha): 0; damage to plant (100=total damage; 0=no damage) AMARE ([11]; Post-Emergence at 250 g/ha): 0; damage to plant (100=total damage; 0=no damage) ABUTH ([12]; Post-Emergence at 15.625 g/ha): 0; damage to plant (100=total damage; 0=no damage) ABUTH ([12]; Post-Emergence at 62.5 g/ha): 0; damage to plant (100=total damage; 0=no damage) ABUTH ([12]; Post-Emergence at 250 g/ha): 0 |
